Measurements taken from US10369159B2, “Estrogen receptor β partial agonist having estrogen receptor α inhibitory effect, and gynecological disease therapeutic agent using same” (NOBELPHARMA CO., LTD., priority 2015, dated 2019).

Tests used:
rat endometriosis model = test: Wet weight of each organ (pituitary, adrenal glands, left uterine horn, femur) in the rat endometriosis model; assay type: in vivo; settings: for Wet weight of pituitary: vehicle 0.0271 g; for Wet weight of adrenal gland (right): vehicle 0.0425 g; for Wet weight of adrenal gland (left): vehicle 0.0468 g; for Wet weight of adrenal glands (the sum of the left and right): vehicle 0.0893 g; for Wet weight of left uterine horn: vehicle 0.1428 g; for Wet weight of femur (left): vehicle 0.7589 g
Procedure: On the previous day of the model preparation (the grouping date), under inhalation anesthesia of 2% isoflurane, an incision was made in the abdomen of the rats. Subsequently, about 5 mL of blood was collected with a syringe from the abdominal vena cava and collected in a Venoject II vacuum blood collection tube (EDTA-2K), then cut the abdominal vena cava and abdominal aorta to euthanize by exsanguination. The right uterine horn was excised and cut out two strips (approximately 5 mm×5 mm), then cut out strips (approximately 5 mm×5 mm) from the graft sites, the right and left abdominal walls (muscle layer and peritoneum). After that, wet weight of each strip and abdominal wall was measured. Then pituitary, adrenal glands (both sides), left uterine horn, mammary gland (excised with the nipples, three on the lower abdomen, a sample for RNA measurement was approximately 3 mm in diameter) and femur (left side) were excised.
As for the pituitary, adrenal glands (both sides), left uterine horn and femur, wet weight was measured. The femur bone after wet weight measurement was discarded.
The administration was made orally, and the drug was forcibly administered into a stomach once a day using a flexible oral sonde and syringe for 28 consecutive days.
On the next day of the final administration, the abdominal dissection was made under inhalation anesthesia of 2% isoflurane, and the grafted uterine strips (two pieces) were excised, and photographed with a digital camera. Subsequently, about 5 mL of blood was collected with a syringe from the abdominal vena cava and collected in a Venoject II vacuum blood collection tube (EDTA-2K), then cut the abdominal vena cava and abdominal aorta to euthanize by exsanguination. Then pituitary, adrenal glands (both sides), graft uterine strips (two pieces), left uterine horn, mammary gland (excised with the nipples, three on the lower abdomen, a sample for RNA measurement was approximately 3 mm in diameter) and femur (left side) were excised.
As for the pituitary, adrenal glands (both sides), grafted uterine strip (one piece), left uterine horn and femur, wet weight was measured. The femur bone after wet weight measurement was discarded.

Era = test: Gene expression analysis of endometrial implants (TaqMan), Era; assay type: in vivo, rat; settings: for Expression level Era: endometrial implants, corrected by GAPDH, n 6, E2 control 44.2 ± 18.9
Procedure: (§1) Total RNA was extracted […] the rat-derived endometrial graft (27 specimens), then quality of the RNA was inspected with a spectrophotometer and bio-analyzer, and then reverse transcription reaction of the RNA was performed, followed by gene expression analysis was performed according to TaqMan method.
(§2) RNA was extracted from the rat uterine horn strips and grafted uterine strip using the RNeasy Fibrous Tissue Mini Kit.
(§3) Concentration of the extracted RNA was measured with a NanaoDrop. Also RIN measurements using a bioanalyzer (6000 nano kits) was carried out. A 6000 pico-kit was used for bioanalyzing of the two samples with low yield (Sample ID: 202, 507).
(§4) cDNA obtained by reverse transcription reaction from 1000 ng/uL of commercially available Rat Tissue Universal Reference Total RNA (Catalog Number PR-UR-100, ZYAGEN Inc.) using SuperScript VILO Master Mix (hereinafter “Standard”) was used as a standard substance.
(§5) Based on the concentration measured with a spectrophotometer, reverse transcription reaction of the specimen with Super Script VILO Master Mix was performed to give 50 ng/uL of cDNA (the following example). As for the samples with low yield, that is Sample ID: 202, 502, 507, the reverse transcription reaction was performed to give 25 ng/uL, 25 ng/uL, and 12.5 ng/uL of cDNA, respectively.
(§6) TaqMan reaction by using Step One Plus Real-Time PCR System was performed with standard 250, 62.5, 15.625, 3.9, 0.98 ng/well or sample 5.0 ng/well. A cycle of reaction, two minutes at 50° C. and 10 minutes at 95° C., followed by 15 seconds at 95° C. and one minute at 60° C., was repeated 40 cycles, then the fluorescence value FAM was measured in real time after the reaction at 60° C. In addition to the target eight genes, GAPDH gene as an internal control gene was measured. All the standards and samples were measured in triplicate.
(§7) From each of the two calibration curves (target gene, GAPDH gene) obtained from the standard, gene expressions level of the target gene and GAPDH gene of the sample was calculated, respectively. Then, the target gene expression level was corrected by the GAPDH gene expression level, the internal control gene. And then, an average gene expression level of the samples in each group was calculated, followed by the average gene expression level of the two groups was used as a standard to compare with each of the other groups.

Erb = test: Gene expression analysis of endometrial implants (TaqMan), Erb; assay type: in vivo, rat; settings: for Expression level Erb: endometrial implants, corrected by GAPDH, n 6, E2 control 2.37 ± 1.07
Procedure: as §1, §2, §3, §4, §5, §6, §7

IL-6 = test: Gene expression analysis of endometrial implants (TaqMan), IL-6; assay type: in vivo, rat; settings: for Expression level IL-6: endometrial implants, corrected by GAPDH, n 6, E2 control 14.24 ± 8.74
Procedure: as §1, §2, §3, §4
(§8) Based on the concentration measured with a spectrophotometer, reverse transcription reaction of the specimen with Super Script VILO Master Mix was performed to give 50 ng/uL of cDNA (the following example). […]
as §6
as §7, with “Then, the target gene expression level was corrected by the GAPDH gene expression level, the internal control gene.” left out

MCP-1 = test: Gene expression analysis of endometrial implants (TaqMan), MCP-1; assay type: in vivo, rat; settings: corrected by GAPDH, n 6, E2 control 29.47 ± 20.81
Procedure: as §1, §2, §3, §4, §8, §6
as §7, with “Then, the target gene expression level was corrected by the GAPDH gene expression level, the internal control gene.” left out

PEDF = test: Gene expression analysis of endometrial implants (TaqMan), PEDF; assay type: in vivo, rat; settings: for Expression level PEDF: endometrial implants, corrected by GAPDH, n 6, E2 control 4.51 ± 1.39
Procedure: as §1, §2, §3, §4, §8, §6
as §7, with “Then, the target gene expression level was corrected by the GAPDH gene expression level, the internal control gene.” left out

[1] = in comparison with the E2 control group

Wet weight of pituitary (rat endometriosis model; 0.1 mg/kg p.o. 28 days): 0.0226 g
Wet weight of adrenal gland (right) (rat endometriosis model; 0.1 mg/kg p.o. 28 days): 0.0400 g
Wet weight of adrenal gland (left) (rat endometriosis model; 0.1 mg/kg p.o. 28 days): 0.0438 g
Wet weight of adrenal glands (the sum of the left and right) (rat endometriosis model; 0.1 mg/kg p.o. 28 days): 0.0838 g
Wet weight of left uterine horn (rat endometriosis model; 0.1 mg/kg p.o. 28 days): 0.1261 g
Wet weight of femur (left) (rat endometriosis model; 0.1 mg/kg p.o. 28 days): 0.7597 g
Weight trend in comparison with the vehicle control group after the Day 14 (in words) (rat endometriosis model; 0.3 mg/kg and 0.1 mg/kg administered group): very mild weight suppression trend
Wet weight of pituitary (rat endometriosis model; 0.3 mg/kg p.o. 28 days): 0.0187 g
Wet weight of adrenal gland (right) (rat endometriosis model; 0.3 mg/kg p.o. 28 days): 0.0381 g
Wet weight of adrenal gland (left) (rat endometriosis model; 0.3 mg/kg p.o. 28 days): 0.0398 g
Wet weight of adrenal glands (the sum of the left and right) (rat endometriosis model; 0.3 mg/kg p.o. 28 days): 0.0779 g
Wet weight of left uterine horn (rat endometriosis model; 0.3 mg/kg p.o. 28 days): 0.1119 g
Wet weight of femur (left) (rat endometriosis model; 0.3 mg/kg p.o. 28 days): 0.7598 g
Wet weight of pituitary (rat endometriosis model; 1.0 mg/kg p.o. 28 days): 0.0174 g
Wet weight of adrenal gland (right) (rat endometriosis model; 1.0 mg/kg p.o. 28 days): 0.0357 g
Wet weight of adrenal gland (left) (rat endometriosis model; 1.0 mg/kg p.o. 28 days): 0.0375 g
Wet weight of adrenal glands (the sum of the left and right) (rat endometriosis model; 1.0 mg/kg p.o. 28 days): 0.0732 g
Wet weight of left uterine horn (rat endometriosis model; 1.0 mg/kg p.o. 28 days): 0.1016 g
Wet weight of femur (left) (rat endometriosis model; 1.0 mg/kg p.o. 28 days): 0.7301 g
Effect on the estrogen receptor gene expression of Era (in words) (Era; [1]): not observed
Effect on the estrogen receptor gene expression of Erb (in words) (Erb; [1]): not observed
SMILES: CCN(CC)Cc1ccc(OCC[C@H]2CC[C@H]3[C@@H]4[C@H](C)Cc5cc(O)ccc5[C@H]4CC[C@]23C)c(OC)c1 [SR16234, (7α)-21-[4-[(diethylamino)methyl]-2-methoxyphenoxy]-7-methyl-19-norpregna-1,3,5(10)-triene-3-ol]
Wet weight of organs in comparison with the vehicle control group (in words) (rat endometriosis model; SR16234 administered groups, 0.1, 0.3 and 1.0 mg/kg): decreasing trend associated with the dose increase
Expression level Era (Era; 0.1 mg/kg): 39.3 ± 14.3 ng
Expression level Era (Era; 0.3 mg/kg): 47.6 ± 14.9 ng
Expression level Era (Era; 1 mg/kg): 33.2 ± 20.7 ng
Expression level Erb (Erb; 0.1 mg/kg): 4.05 ± 1.88 ng
Expression level Erb (Erb; 0.3 mg/kg): 3.05 ± 1.02 ng
Expression level Erb (Erb; 1 mg/kg): 2.08 ± 1.51 ng
Expression level IL-6 (IL-6; 0.1 mg/kg): 9.77 ± 9.78 ng
Expression level IL-6 (IL-6; 1 mg/kg): 6.74 ± 4.96 ng
Effect on the gene expression of IL-6 (in words) (IL-6; in comparison with the E2 control group, FIG. 3): dose-dependently inhibited
Expression level MCP-1 (MCP-1; 0.1 mg/kg): 41.95 ± 21.68 ng
Expression level MCP-1 (MCP-1; 0.3 mg/kg): 28.30 ± 10.93 ng
Expression level MCP-1 (MCP-1; 1 mg/kg): 26.70 ± 18.30 ng
Expression level PEDF (PEDF; 0.1 mg/kg): 6.44 ± 1.56 ng
Expression level PEDF (PEDF; 1 mg/kg): 5.93 ± 3.01 ng
Effect on the gene expression of PEDF (in words) (PEDF; in comparison with the E2 control group, FIG. 2): increase trend
